Data from US5374772A, “Substituted benzoic acids, inhibitors of phospholipases A2” (Hoffmann-LaRoche Inc., priority 1993, dated 1994).

Tested on: paw edema induced by Naja naja venom phospholipase A2
Assay: Phospholipase A2 Rat Paw Edema
Type: in vivo, Lewis rats
Conditions: 30 mg/kg ip, measured 2 hours after PLA2 injection

SMILES: CCCCCCCCCCCCCCCCCCOc1cc(OC(=O)C(c2ccccc2)c2ccccc2)cc(C(=O)O)c1 [Example 11, 3-(Octadecyloxy)-5-(2,2-diphenyl-1-oxoethoxy) benzoic acid]
- inhibition of edema (PLA2 rat paw edema): 29%
